Assays:
[1] = molecular target: Protein kinase C beta type (Homo sapiens) (UniProt P05771); test: Inhibition of human full length PKC beta2 expressed in baculovirus assessed as substrate phosphorylation using fluorescence-labelled peptides as substrate at 0.2 uM after 90 mins by microfluidic peptide phosphorylation assay
[2] = molecular target: RAC-alpha serine/threonine-protein kinase (Homo sapiens) (UniProt P31749); test: Inhibition of human AKT1 catalytic domain expressed in baculovirus assessed as substrate phosphorylation using fluorescence-labelled peptides as substrate at 0.2 uM after 90 mins by microfluidic peptide phosphorylation assay
[3] = molecular target: Glycogen synthase kinase-3 beta (Homo sapiens) (UniProt P49841); test: Inhibition of human full length GSK-3 beta expressed in baculovirus assessed as substrate phosphorylation using fluorescence-labelled peptides as substrate at 420 uM after 90 mins by microfluidic peptide phosphorylation assay
[4] = molecular target: T1, Protein kinase C epsilon type (Homo sapiens) (UniProt Q02156); test: Inhibition of human truncated PKC epsilon expressed in baculovirus assessed as substrate phosphorylation using fluorescence-labelled peptides as substrate at 420 uM after 90 mins by microfluidic peptide phosphorylation assay
T1 sequence (whole entry): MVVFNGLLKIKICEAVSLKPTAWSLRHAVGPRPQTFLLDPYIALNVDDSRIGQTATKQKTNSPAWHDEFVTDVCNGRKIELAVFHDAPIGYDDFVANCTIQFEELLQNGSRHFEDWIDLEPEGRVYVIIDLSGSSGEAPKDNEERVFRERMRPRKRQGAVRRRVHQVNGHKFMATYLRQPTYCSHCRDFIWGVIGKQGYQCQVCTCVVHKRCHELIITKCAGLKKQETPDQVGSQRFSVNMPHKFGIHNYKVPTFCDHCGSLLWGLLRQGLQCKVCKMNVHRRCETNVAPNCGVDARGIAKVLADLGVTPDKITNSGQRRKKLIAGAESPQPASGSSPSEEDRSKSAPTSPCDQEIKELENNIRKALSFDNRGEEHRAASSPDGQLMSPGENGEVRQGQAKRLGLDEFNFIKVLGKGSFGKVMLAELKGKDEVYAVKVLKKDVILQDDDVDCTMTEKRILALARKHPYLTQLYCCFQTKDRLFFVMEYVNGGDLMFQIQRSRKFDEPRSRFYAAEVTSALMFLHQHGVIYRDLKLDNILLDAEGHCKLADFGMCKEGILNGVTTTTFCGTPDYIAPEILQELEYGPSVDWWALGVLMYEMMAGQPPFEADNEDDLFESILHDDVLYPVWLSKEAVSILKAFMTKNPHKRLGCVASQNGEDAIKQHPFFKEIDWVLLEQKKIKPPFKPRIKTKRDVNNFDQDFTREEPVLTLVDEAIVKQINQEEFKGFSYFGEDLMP

[5] = molecular target: Dual specificity tyrosine-phosphorylation-regulated kinase 1A (Rattus norvegicus) (UniProt Q63470); test: Inhibition of rat full length DYRK1a expressed in Escherichia coli cell assessed as substrate phosphorylation using fluorescence-labelled peptides as substrate at 420 uM after 90 mins by microfluidic peptide phosphorylation assay
[6] = molecular target: T2, MAP kinase-activated protein kinase 5 (Homo sapiens) (UniProt Q8IW41); test: Inhibition of human full length PRAK expressed in baculovirus assessed as substrate phosphorylation using fluorescence-labelled peptides as substrate at 9 uM after 90 mins by microfluidic peptide phosphorylation assay
T2 sequence (whole entry): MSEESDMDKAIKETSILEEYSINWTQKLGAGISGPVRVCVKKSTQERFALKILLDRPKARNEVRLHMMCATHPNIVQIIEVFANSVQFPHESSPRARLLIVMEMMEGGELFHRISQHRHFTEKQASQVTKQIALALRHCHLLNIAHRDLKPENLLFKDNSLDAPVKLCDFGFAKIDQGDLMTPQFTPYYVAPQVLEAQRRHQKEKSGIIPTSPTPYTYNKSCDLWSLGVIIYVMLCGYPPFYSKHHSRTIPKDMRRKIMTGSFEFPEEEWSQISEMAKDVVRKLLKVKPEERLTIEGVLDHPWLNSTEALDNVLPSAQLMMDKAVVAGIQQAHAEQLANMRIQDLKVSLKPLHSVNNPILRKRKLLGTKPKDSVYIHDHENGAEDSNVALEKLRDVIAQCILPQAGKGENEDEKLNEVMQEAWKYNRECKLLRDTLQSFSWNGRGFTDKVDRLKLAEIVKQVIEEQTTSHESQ

[7] = molecular target: Mitogen-activated protein kinase 3 (Homo sapiens) (UniProt P27361); test: Inhibition of human full length ERK1 expressed in Escherichia coli cell assessed as substrate phosphorylation using fluorescence-labelled peptides as substrate at 2 uM after 90 mins by microfluidic peptide phosphorylation assay
[8] = molecular target: T3, Serine/threonine-protein kinase 3 (Homo sapiens) (UniProt Q13188); test: Inhibition of human full length MST2 expressed in baculovirus assessed as substrate phosphorylation using fluorescence-labelled peptides as substrate at 0.1 uM after 90 mins by microfluidic peptide phosphorylation assay
T3 sequence (whole entry): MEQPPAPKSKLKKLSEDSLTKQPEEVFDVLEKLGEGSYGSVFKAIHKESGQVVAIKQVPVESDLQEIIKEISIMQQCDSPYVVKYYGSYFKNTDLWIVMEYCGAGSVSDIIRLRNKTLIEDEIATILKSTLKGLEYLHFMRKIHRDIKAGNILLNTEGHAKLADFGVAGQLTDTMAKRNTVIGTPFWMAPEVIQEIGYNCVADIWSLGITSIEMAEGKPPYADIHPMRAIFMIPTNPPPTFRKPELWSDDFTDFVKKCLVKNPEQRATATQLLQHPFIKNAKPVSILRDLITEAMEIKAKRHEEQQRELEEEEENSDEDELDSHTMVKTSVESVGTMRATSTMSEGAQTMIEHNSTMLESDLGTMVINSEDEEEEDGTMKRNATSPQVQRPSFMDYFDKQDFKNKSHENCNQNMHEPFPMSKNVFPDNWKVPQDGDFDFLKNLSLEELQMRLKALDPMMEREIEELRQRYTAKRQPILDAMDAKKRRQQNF

[9] = molecular target: Serine/threonine-protein kinase MARK1 (Homo sapiens) (UniProt Q9P0L2); test: Inhibition of human full length MARK1 expressed in baculovirus assessed as substrate phosphorylation using fluorescence-labelled peptides as substrate at 95 uM after 90 mins by microfluidic peptide phosphorylation assay
[10] = molecular target: Ribosomal protein S6 kinase alpha-4 (Homo sapiens) (UniProt O75676); test: Inhibition of human full length MSK2 expressed in baculovirus assessed as substrate phosphorylation using fluorescence-labelled peptides as substrate at 0.06 uM after 90 mins by microfluidic peptide phosphorylation assay
[11] = molecular target: Protein kinase C beta type (Homo sapiens) (UniProt P05771); test: Inhibition of human full length PKC beta2 expressed in baculovirus assessed as substrate phosphorylation using fluorescence-labelled peptides as substrate at 0.06 uM after 90 mins by microfluidic peptide phosphorylation assay
[12] = molecular target: Calcium/calmodulin-dependent protein kinase type II subunit delta (Homo sapiens) (UniProt Q13557); test: Inhibition of human full length CAMK2D expressed in baculovirus assessed as substrate phosphorylation using fluorescence-labelled peptides as substrate at 1000 uM after 90 mins by microfluidic peptide phosphorylation assay
Sequence of Calcium/calmodulin-dependent protein kinase type II subunit delta (Homo sapiens) (Q13557 whole entry): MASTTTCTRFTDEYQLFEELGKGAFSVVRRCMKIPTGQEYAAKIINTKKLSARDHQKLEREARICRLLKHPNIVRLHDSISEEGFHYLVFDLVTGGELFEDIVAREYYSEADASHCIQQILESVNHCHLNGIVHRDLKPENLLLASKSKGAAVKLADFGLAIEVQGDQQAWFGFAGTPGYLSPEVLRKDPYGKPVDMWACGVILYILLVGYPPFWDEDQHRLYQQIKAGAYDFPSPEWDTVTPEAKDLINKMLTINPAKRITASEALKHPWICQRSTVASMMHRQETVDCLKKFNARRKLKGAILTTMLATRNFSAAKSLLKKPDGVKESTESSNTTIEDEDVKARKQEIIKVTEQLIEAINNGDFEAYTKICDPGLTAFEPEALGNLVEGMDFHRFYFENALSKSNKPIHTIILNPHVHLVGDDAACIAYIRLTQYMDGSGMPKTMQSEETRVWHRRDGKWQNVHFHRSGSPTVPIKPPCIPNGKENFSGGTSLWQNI

Sequence of Protein kinase C beta type (Homo sapiens) (P05771 2-671 limits assumed): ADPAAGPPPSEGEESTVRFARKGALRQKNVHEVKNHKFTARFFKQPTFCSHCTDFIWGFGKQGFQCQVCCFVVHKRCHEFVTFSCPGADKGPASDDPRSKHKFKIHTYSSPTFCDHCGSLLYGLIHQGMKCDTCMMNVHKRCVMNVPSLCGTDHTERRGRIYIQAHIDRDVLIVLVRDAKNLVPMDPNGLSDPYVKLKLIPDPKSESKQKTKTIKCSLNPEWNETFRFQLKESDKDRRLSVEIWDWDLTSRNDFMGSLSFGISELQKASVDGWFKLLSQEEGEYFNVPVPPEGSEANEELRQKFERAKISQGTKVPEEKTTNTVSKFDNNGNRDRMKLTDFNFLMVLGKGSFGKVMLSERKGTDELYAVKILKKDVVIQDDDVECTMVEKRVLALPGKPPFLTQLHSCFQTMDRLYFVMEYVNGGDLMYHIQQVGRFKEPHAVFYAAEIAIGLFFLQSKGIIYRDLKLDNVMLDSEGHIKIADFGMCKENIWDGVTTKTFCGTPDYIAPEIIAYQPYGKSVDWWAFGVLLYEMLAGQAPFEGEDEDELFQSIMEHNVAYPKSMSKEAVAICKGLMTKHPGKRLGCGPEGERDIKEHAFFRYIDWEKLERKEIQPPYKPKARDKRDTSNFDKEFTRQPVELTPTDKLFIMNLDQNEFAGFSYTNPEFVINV
Sequence of Glycogen synthase kinase-3 beta (Homo sapiens) (P49841 whole entry, looked up, the tested form may be a part): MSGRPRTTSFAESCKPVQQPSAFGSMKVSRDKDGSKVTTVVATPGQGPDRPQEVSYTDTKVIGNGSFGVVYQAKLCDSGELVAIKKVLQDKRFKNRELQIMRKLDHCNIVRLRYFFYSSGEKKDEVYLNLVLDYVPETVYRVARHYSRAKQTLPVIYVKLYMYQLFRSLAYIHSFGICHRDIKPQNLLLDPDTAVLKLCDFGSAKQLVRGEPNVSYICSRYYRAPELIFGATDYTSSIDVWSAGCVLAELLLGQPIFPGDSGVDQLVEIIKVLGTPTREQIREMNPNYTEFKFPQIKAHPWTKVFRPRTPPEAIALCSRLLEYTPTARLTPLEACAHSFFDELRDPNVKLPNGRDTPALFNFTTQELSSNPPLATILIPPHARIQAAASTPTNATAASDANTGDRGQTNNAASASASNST
Sequence of Mitogen-activated protein kinase 3 (Homo sapiens) (P27361 whole entry): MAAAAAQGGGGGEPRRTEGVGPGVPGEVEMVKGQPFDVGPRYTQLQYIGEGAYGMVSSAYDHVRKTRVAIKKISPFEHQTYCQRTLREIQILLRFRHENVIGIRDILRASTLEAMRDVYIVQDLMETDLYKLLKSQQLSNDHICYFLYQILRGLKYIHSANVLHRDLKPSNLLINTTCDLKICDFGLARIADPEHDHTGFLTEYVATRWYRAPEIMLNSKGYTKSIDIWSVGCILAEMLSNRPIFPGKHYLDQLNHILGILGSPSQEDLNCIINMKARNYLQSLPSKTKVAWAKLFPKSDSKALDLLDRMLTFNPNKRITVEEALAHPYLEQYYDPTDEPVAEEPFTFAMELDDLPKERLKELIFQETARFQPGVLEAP
Sequence of RAC-alpha serine/threonine-protein kinase (Homo sapiens) (P31749 whole entry, the tested form may be a part): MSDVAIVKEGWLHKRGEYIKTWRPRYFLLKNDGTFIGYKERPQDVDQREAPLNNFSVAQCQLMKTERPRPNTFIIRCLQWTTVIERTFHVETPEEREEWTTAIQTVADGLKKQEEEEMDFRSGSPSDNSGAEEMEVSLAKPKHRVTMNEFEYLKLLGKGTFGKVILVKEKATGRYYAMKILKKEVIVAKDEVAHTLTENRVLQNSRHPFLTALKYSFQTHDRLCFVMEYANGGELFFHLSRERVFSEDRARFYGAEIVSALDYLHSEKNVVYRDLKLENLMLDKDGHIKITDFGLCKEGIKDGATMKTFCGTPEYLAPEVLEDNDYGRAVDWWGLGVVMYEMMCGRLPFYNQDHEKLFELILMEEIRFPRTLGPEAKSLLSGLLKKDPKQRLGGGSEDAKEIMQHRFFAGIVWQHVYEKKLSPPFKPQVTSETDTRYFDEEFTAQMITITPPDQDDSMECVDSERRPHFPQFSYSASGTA
Sequence of Serine/threonine-protein kinase MARK1 (Homo sapiens) (Q9P0L2 whole entry, looked up): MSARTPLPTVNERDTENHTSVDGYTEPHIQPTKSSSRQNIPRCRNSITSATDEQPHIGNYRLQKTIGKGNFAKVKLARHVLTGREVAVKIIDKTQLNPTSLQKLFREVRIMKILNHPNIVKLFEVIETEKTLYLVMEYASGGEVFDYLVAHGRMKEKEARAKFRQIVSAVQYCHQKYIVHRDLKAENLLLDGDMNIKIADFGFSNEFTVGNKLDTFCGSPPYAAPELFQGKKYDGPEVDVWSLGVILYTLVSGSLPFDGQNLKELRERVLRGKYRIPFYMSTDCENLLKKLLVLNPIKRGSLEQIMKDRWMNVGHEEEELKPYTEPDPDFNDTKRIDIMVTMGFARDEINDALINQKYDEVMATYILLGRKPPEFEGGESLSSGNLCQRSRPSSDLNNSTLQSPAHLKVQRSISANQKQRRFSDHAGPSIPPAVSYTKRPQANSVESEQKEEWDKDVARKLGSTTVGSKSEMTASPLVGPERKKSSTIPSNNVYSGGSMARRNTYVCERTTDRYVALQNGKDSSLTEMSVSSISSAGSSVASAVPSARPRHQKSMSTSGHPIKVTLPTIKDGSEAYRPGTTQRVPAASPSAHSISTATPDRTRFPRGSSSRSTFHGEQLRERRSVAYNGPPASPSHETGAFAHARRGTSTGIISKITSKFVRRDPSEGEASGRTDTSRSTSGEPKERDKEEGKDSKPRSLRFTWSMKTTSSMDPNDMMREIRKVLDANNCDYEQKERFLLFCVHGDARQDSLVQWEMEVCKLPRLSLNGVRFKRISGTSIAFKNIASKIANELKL
Sequence of Ribosomal protein S6 kinase alpha-4 (Homo sapiens) (O75676 whole entry, looked up): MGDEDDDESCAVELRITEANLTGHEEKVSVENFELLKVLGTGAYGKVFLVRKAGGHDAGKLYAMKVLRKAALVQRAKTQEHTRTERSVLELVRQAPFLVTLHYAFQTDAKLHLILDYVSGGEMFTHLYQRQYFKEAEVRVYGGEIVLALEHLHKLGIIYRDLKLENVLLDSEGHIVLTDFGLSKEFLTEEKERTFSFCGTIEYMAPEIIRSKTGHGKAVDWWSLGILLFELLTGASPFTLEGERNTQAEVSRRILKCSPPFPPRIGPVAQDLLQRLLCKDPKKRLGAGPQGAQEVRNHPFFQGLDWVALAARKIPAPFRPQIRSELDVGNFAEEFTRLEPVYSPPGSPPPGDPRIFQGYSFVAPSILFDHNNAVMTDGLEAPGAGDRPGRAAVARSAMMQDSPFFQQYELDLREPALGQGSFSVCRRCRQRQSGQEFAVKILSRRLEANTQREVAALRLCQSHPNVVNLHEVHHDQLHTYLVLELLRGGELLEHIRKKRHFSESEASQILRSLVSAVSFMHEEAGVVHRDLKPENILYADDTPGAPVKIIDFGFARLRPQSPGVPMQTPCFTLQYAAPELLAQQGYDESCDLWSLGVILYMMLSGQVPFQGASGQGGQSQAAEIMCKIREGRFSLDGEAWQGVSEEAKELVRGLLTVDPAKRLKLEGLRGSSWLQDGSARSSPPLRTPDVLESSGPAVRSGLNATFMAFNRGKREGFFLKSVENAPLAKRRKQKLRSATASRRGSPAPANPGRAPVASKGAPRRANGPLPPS

Clc1ccc(C2(c3ccc(-c4ncnc5[nH]cnc45)cc3)CCNCC2)cc1
inhibition [1]: 38.5% | inhibition [2]: 94%

c1nc(N2CCOCC2)c2nc[nH]c2n1
inhibition [3]: 90% | inhibition [4]: 73.5% | inhibition [5]: 77%

NCC1CN(c2ncnc3[nH]c4cnccc4c23)CCO1 (configuration not stated)
inhibition [6]: 0%

NC1CCN(c2ncnc3[nH]ccc23)CC1
inhibition [7]: 1%

C[C@H](CN(C)C)Oc1nc(Nc2cc3cccc(Cl)c3cn2)cnc1C#N
inhibition [8]: 11.5%

NCCc1ccc(-c2ncnc3[nH]cnc23)cc1
inhibition [9]: 97%

NC1(Cc2ccc(Cl)cc2)CCN(c2ncnc3[nH]ccc23)CC1
inhibition [10]: 0% | inhibition [11]: 0%

c1cnc2[nH]ccc2c1
inhibition [12]: 37.5%
